Counter-ions that a name gives are not always drawn. Like-named read-outs stand apart in the source and are kept apart here.
Legend:
[1] = test system: constitutive active colorectal cancer cell (CRC) Wnt pathway; assay: HCT116 Super TopFlash cellular reporter assay (constitutive active Wnt pathway); assay type: cell-based; conditions: HCT116 TOP reporter cells, luciferase expression, 36 hours incubation, 50 μM to 15 nM
Method: In order to discover and characterize small molecules which inhibit the constitutive active colorectal cancer cell (CRC) Wnt pathway, a cellular reporter assay was employed. The corresponding assay cell was generated by transfection of the colorectal cancer cell line HCT116 (ATCC, #CCL-247) with the Super TopFlash vector (Morin, Science 275, 1997, 1787-1790; Molenaar et al., Cell 86 (3), 1996, 391-399). The HCT116 cell line is cultivated at 37° C. and 5% CO2 in DMEM/F-12 (Life Technologies, #11320-074), supplemented with 2 mM glutamine, 20 mM HEPES, 1.4 mM pyruvate, 0.15% Na-bicarbonate and 10% foetal bovine serum (GIBCO, #10270), this cancer cell line is pathophysiological relevant since it carries a deletion of position S45 in the β-catenin gene, leading to constitutive active Wnt signaling. Stable transfectants were generated by cotransfection with pcDNA3 and selection of stable transfected cells with 1 mg/ml G418.
(§1) In a parallel approach, HCT116 cells were cotransfected with the FOP control vector and pcDNA3. The FOP vector is identical to the TOP construct, but it contains instead of functional TCF elements a randomized, non-functional sequence. For this transfection a stable transfected cell line was generated as well.
(§2) In preparation of the assay, the two cell lines were plated 24 hrs before at 10000 cells per well of a 384 micro titre plate (MTP) in 30 μL growth medium. Selective inhibitory activity for small molecules on the mutated Wnt pathway was determined after parallel incubation of both (TOP and FOP) HCT116 reporter cell lines with a compound dilution series from 50 μM to 15 nM in steps of 3.16-fold dilutions in CAFTY buffer (130 mM NaCl, 5 mM KCl, 20 mM HEPES, 1 mM MgCl2, 5 mM NaHCO3, pH 7.4) containing 2 mM Ca^2+ and 0.01% BSA. The compounds were thereby serially prediluted in 100% DMSO and thereafter in addition 50 fold into the CAFTY compound dilution buffer (described above). From this dilution 10 μL were added to the cells in 30 μL growth medium and incubated for 36 hours at 37° C. and 5% CO2. Thereafter luciferase assay buffer (1:1 mixture of luciferase substrate buffer (20 mM Tricine, 2.67 mM MgSO4, 0.1 mM EDTA, 4 mM DTT, 270 μM Coenzyme A, 470 μM Luciferin, 530 μM ATP, ph adjusted to pH 7.8 with a sufficient volume of 5M NaOH) and Triton buffer (30 mL Triton X-100, 115 mL glycerol, 308 mg Dithiothreitol, 4.45 g Na2HPO4.2 H2O, 3.03 g Tris.HCL, ad 1 l H20, pH 7.8) was added as equal volume to the compound solution on the cells to determine luciferase expression as a measure of Wnt signaling activity in a luminometer.

[2] = test system: HCT116 FOP control reporter cell line; assay: HCT116 FOP control vector reporter assay (non-functional TCF elements); assay type: cell-based; conditions: HCT116 FOP control reporter cells, luciferase expression, 36 hours incubation, 50 μM to 15 nM, read-out: HCT116 FOPFlash IC50
Method: as §1, §2

Structure (SMILES)	IC50 ([1]; Homo sapiens, HCT-116, 36 h)	IC50 ([2]; Homo sapiens, HCT-116, 36 h)	IC50 [1]	IC50 [2]
COCCc1noc(-c2ccc(C(=O)Nc3ccc(-c4ccccc4)cc3)cc2NC(=O)CN2CCOCC2)n1 [Example 200, N-(biphenyl-4-yl)-4-[3-(2-methoxyethyl)-1,2,4-oxadiazol-5-yl]-3-[(morpholin-4-ylacetyl)amino]benzamide]	1750 nM	≥ 50000 nM		
COc1ccc(C(=O)Nc2ccc(-c3ccccc3)cc2)cc1NC(=O)CN1C[C@H]2C[C@@H]1CO2 [Example 201, N-(biphenyl-4-yl)-4-methoxy-3-{[(1R,4R)-2-oxa-5-azabicyclo[2.2.1]hept-5-ylacetyl)amino}benzamide]	1900 nM	≥ 50000 nM		
COc1ccc(NC(=O)c2ccc(-c3ccc(NC(C)=O)cc3)cc2)cc1NC(=O)CN1CCOCC1 [Example 118, 4′-acetamido-N-{4-methoxy-3-[(morpholin-4-ylacetyl)amino]phenyl}biphenyl-4-carboxamide]	960 nM	≥ 50000 nM		
O=C(CN1CCOCC1)Nc1cc(NC(=O)c2ccc(-c3ccccc3)cc2)ccc1Cl [Example 69, N-{4-chloro-3-[(morpholin-4-ylacetyl)amino]phenyl}biphenyl-4-carboxamide]	810 nM	9300 nM		
COc1ccc(NC(=O)c2ccc(-c3ccccc3)cc2)cc1NC(=O)CN1CCN(C)CC1 [Example 47, N-(4-methoxy-3-{[(4-methylpiperazin-1-yl)acetyl]amino}phenyl)biphenyl-4-carboxamide]	718 nM	33500 nM		
CC(C)(O)c1ccc(C(=O)Nc2ccc(-c3ccccc3)cc2)cc1NC(=O)CN1CCOCC1 [Example 117, N-(biphenyl-4-yl)-4-(2-hydroxypropan-2-yl)-3-[(morpholin-4-ylacetyl)amino]benzamide]	153 nM	≥ 50000 nM		
COc1ccc(NC(=O)c2ccc(-c3ccccc3)c(F)c2)cc1NC(=O)CN1CCOCC1 [Example 203, 2-fluoro-N-{4-methoxy-3-[(morpholin-4-ylacetyl)amino]phenyl} biphenyl-4-carboxamide]	2020 nM	≥ 50000 nM		
CC(C(=O)Nc1cc(NC(=O)c2ccc(-c3ccccc3)cc2)ccc1C(F)(F)F)N1CC2CCC(C1)O2 (stereo not drawn) [Example 197, N-[3-{[(2S*)-2-(8-oxa-3-azabicydo[3.2.1]oct-3-yl)propanoyl]amino}-4-(trifluoromethyl)phenyl) biphenyl-4-carboxamide]			1480 nM	≥ 50000 nM
COCCOc1ccc(C(=O)Nc2ccc(-c3ccccc3)cc2)cc1NC(=O)CN1CCOCC1 [Example 92, N-(biphenyl-4-yl)-4-(2-methoxyethoxy)-3-[(morpholin-4-ylacetyl)amino]benzamide]	448 nM	≥ 50000 nM		
COCc1ccc(C(=O)Nc2ccc(-c3ccccc3)cc2)cc1NC(=O)CN1CCOCC1 [Example 165, N-(biphenyl-4-yl)-4-(methoxymethyl)-3-[(morpholin-4-ylacetyl)amino]benzamide]	135 nM	≥ 50000 nM		
COCc1ccc(C(=O)Nc2ccc(-c3ccccc3)cc2)cc1NC(=O)C(C)N1CC2CCC(C1)O2 (single isomer, unassigned) [Example 167, N-(biphenyl-4-yl)-4-(methoxymethyl)-3-{[(2S*)-2-(8-oxa-3-azabicyclo[3.2.1]oct-3-yl)propanoyl]amino} benzamide]	139 nM	41200 nM		
COc1ccc(NC(=O)c2ccc(-c3ccccc3)cc2)cc1NC(=O)C1(N2CCN(C)CC2)CC1 [Example 163, N-[4-methoxy-3-({[1-(4-methylpiperazin-1-yl)cyclopropyl]carbonyl}amino)phenyl]biphenyl-4-carboxamide hydrochloride (1:1)]	127 nM	12600 nM		
COc1ccc(NC(=O)c2ccc(-c3ccccc3)cc2)cc1NC(=O)[C@H](C)N1CCOCC1 [Example 54, N-(4-methoxy-3-{[(2S)-2-(morpholin-4-yl)propanoyl]amino}phenyl)biphenyl-4-carboxamide]	350 nM	≥ 50000 nM		
O=C(CN1CCOCC1)Nc1cc(C(=O)Nc2ccc(-c3ccccc3)cc2)ccc1OC(F)F [Example 184, N-(biphenyl-4-yl)-4-(difluoromethoxy)-3-[(morpholin-4-ylacetyl)amino]benzamide]	346 nM	≥ 50000 nM		
COc1ccc(NC(=O)c2ccc(-c3ccccc3)cc2)cc1NC(=O)CN1C[C@@H](C)O[C@@H](C)C1 [Example 212, N-[3-({[(2R,6S)-2,6-dimethylmorpholin-4-yl]acetyl}amino)-4-methoxyphenyl]biphenyl-4-carboxamide]	4350 nM	≥ 50000 nM		
COCCCOc1ccc(C(=O)Nc2ccc(-c3ccccc3)cc2)cc1NC(=O)CN1CCOCC1 [Example 91, N-(biphenyl-4-yl)-4-(3-methoxypropoxy)-3-[(morpholin-4-ylacetyl)amino]benzamide]	262 nM	≥ 50000 nM		

Further molecules by falling IC50 ([1]; Homo sapiens, HCT-116, 36 h), results first:

IC50 ([1]; Homo sapiens, HCT-116, 36 h)	IC50 ([2]; Homo sapiens, HCT-116, 36 h)	IC50 [1]	IC50 [2]	Structure (SMILES)
4600 nM	≥ 50000 nM			COc1ccc(NC(=O)c2ccc(-c3ccccc3)cc2)cc1NC(=O)CN1CCOC[C@@H]1CCO [Example 213, N-[3-({[(3S)-3-(2-hydroxyethyl)morpholin-4-yl]acetyl}amino)-4-methoxyphenyl]biphenyl-4-carboxamide]
3850 nM	≥ 50000 nM			COc1ccc(CC(=O)Nc2cc(NC(=O)c3ccc(-c4ccccc4)cc3)ccc2OC)cc1 [Example 144, N-(4-methoxy-3-{[(4-methoxyphenyl)acetyl]amino}phenyl)biphenyl-4-carboxamide]
2900 nM	≥ 50000 nM			COc1ccc(NC(=O)c2ccc(-c3cccc(C(F)(F)F)c3)cc2)cc1NC(=O)CN1CCOCC1 [Example 78, N-{4-methoxy-3-[(morpholin-4-ylacetyl)amino]phenyl}-3′-(trifluoromethyl)biphenyl-4-carboxamide]
1350 nM	≥ 50000 nM			Cc1ccc(NC(=O)c2ccc(-c3ccccc3)cc2)cc1NC(=O)CN1CCOCC1 [Example 70, N-{4-methyl-3-[(morpholin-4-ylacetyl)amino]phenyl}biphenyl-4-carboxamide]
423 nM	≥ 50000 nM			COCc1ccc(C(=O)Nc2ccc(-c3ccccc3)cc2)cc1NC(=O)Cn1cccn1 [Example 187, N-(biphenyl-4-yl)-4-(methoxymethyl)-3-[(1H-pyrazol-1-ylacetyl)amino]benzamide]
374 nM	≥ 50000 nM			COc1ccc(NC(=O)c2ccc(-c3ccccc3)cc2)cc1NC(=O)C1(N2CCN(C3CC3)CC2)CC1 [Example 185, N-[3-({[l-(4-cyclopropylpiperazin-1-yl)cyclopropyl]carbonyl}amino}-4-melhoxyphenyl)biphenyl-4-carboxamide]
136 nM	≥ 50000 nM			O=C(CN1CCOCC1)Nc1cc(C(=O)Nc2ccc(-c3ccccc3)cc2)ccc1-c1cccs1 [Example 19, N-(biphenyl-4-yl)-3-[(morpholin-4-ylacetyl)amino]-4-(2-thienyl)benzamide]
13.3 nM	15000 nM			COCc1ccc(C(=O)Nc2ccc(-c3ccccc3)cc2)cc1NC(=O)C1(N2CCN(C3CC3)CC2)CC1 [Example 149, N-(biphenyl-4-yl)-3-({[1-(4-cyclopropylpiperazin-1-yl)cyclopropyl]carbonyl}amino)-4-(methoxymethyl)benzamide]
10.2 nM	≥ 50000 nM			COC(=O)c1ccc(C(=O)Nc2ccc(-c3ccccc3)cc2)cc1NC(=O)C1(N2CCOCC2)CC1 [Example 147, methyl 4-(biphenyl-4-ylcarbamoyl)-2-({[1-(morpholin-4-yl)cyclopropyl]carbonyl}amino)benzoate]
9.98 nM	27000 nM			COCc1ccc(C(=O)Nc2ccc(-c3ccccc3)cc2)cc1NC(=O)C(C)N1CC2CCC(C1)O2 (single isomer, unassigned) [Example 146, N-(biphenyl-4-yl)-4-(methoxymethyl)-3-{[(2R*)-2-(8-oxa-3-azabicyclo[3.2.1]oct-3-yl)propanoyl)amino} benzamide]

From patent publication US20160052898A1, “NOVEL COMPOUNDS” (BAYER PHARMA AKTIENGESELLSCHAFT, priority 2013, published 2016)
